Where two headings read alike, the source gives them in different places.
Columns and labels:
[1] = target: T1, P22 Max (Homo sapiens, UniProt P61244); assay: Tyrosine fluorescence quenching titration; type: binding; conditions: 1 µM P22 Max, pH 7.4
T1 construct: 6xHis tag + TEV site (N, cleaved yes); made in house; host or cells: E. coli BL21(DE3) pLysS
Procedure: (§1) The lyophilized protein (or peptide) was reconstituted in ultrapure water and incubated to room temperature for at least 1 hr. The protein or peptide was then sterile filtered using a pre-wet 0.2 μm polyethylene sulfone (PES) filter (VWR), and the concentration was determined by the absorbance at 274 nm using the extinction coefficient per tyrosine of ε274 = 1470 M^−1cm^−1. The final stock concentrations ranged from 50 to 100 μM.
(§2) For excess 34RH tyrosine fluorescence quenching experiments, samples were prepared with the following buffer components: sterile filtered water, 1xPBS (137 mM NaCl, 2.7 mM KCl, 4.3 mM Na2HPO4, 1.4 mM KH2PO4), and 5% total DMSO. The pH of the buffer was adjusted to 6 or 7.4 depending on the experiment performed. Three separate samples were prepared in 1xPBS and 5% total DMSO: one containing 50 μM 34RH alone, one containing 1 μM of protein and 50 μM 34RH, and one containing 1 μM protein alone. For the 34RH containing samples, the compound was delivered from a 1 mM DMSO stock. These samples were then serially diluted two-fold from 50 μM 34RH to 1.56 μM 34RH. All samples for fluorescence measurements maintained a final 5% DMSO concentration.
(§3) The samples were incubated for at least 15 min before fluorescence was measured. The samples were excited at 274 nm, and the emission spectra were obtained from 285 to 340 nm using 5 nm excitation and 5 nm emission slits using a Horiba Fluoromax 4 fluorometer. The fluorescence data were background corrected using buffer (for samples with only protein) or small molecule (for samples containing protein and 34RH) (Figure S4). The absorbance due to 34RH and protein at the excitation and emission wavelengths can suppress the observed fluorescence intensity to give rise to the inner filter effect. To account for this suppression, we corrected the fluorescence signals using Equation (3). This correction accounted for the fluorescence suppression due to the absorbance of both 34RH and the protein [47]. (3) Fcorr=Fobs∗ 10^Aex+ Aem/2
(§4) Here, the corrected fluorescence is Fcorr, the background-subtracted observed fluorescence is Fobs, and Aex and Aem are the total absorbance at the excitation and emission wavelengths, respectively. The amount of protein fluorescence quenched by 34RH at a particular concentration was calculated using Fcorr at λ = 304 nm (Equation (4)). (4) Fraction Quenched=1−Fcorr304nm of Protein +34RH/ Fcorr304nm of Protein only
(§5) The quenching data were fit to a Langmuir binding isotherm using Equation (5), from which the dissociation constant (KD) was obtained. Here, Qmax describes the maximum fraction quenched, [L]T is the total 34RH concentration, and [P]T is the total protein concentration. The total concentration of the protein was 1 µM for all fluoresce experiments conducted at a constant protein concentration. (5) Fraction Quenched=Qmax∗([L]T+P]T+ KD−(L]T+P]T+ KD)^2−4 ∗ L]T ∗ P]T/2∗[L]T

[2] = target: T2, MaxRH-N78E (Homo sapiens, UniProt P61244, K77E/M74V/N78E/Q72L/R75Q/R76A/Y73S); assay: Tyrosine fluorescence quenching titration; type: binding; conditions: MaxRH-N78E mutant
T2 construct: 6xHis tag + TEV site (N, cleaved yes); made in house; host or cells: E. coli BL21(DE3) pLysS
Procedure: as §1, §2, §3, §4, §5

[3] = target: T3, Myc353–437 E410N (Homo sapiens, UniProt P01106, E425N); assay: Tyrosine fluorescence quenching titration; type: binding; conditions: Myc353–437 E410N mutant
T3 construct: 6xHis tag + TEV site (N, cleaved yes); made in house; host or cells: E. coli BL21(DE3) pLysS
Procedure: as §1, §2, §3, §4, §5

[4] = target: T4, P21 Max (Homo sapiens, UniProt P61244); assay: Tyrosine fluorescence quenching titration; type: binding; conditions: 1 µM P21 Max, pH 7.4
T4 construct: 6xHis tag + TEV site (N, cleaved yes); made in house; host or cells: E. coli BL21(DE3) pLysS
Procedure: as §1, §2, §3, §4, §5

[5] = target: T5, MaxRH (Homo sapiens, UniProt P61244, K77E/M74V/Q72L/R75Q/R76A/Y73S); assay: Tyrosine fluorescence quenching titration; type: binding; conditions: for Kd: 1 µM MaxRH, read-out: dissociation constant (KD)
T5 construct: 6xHis tag + TEV site (N, cleaved yes); made in house; host or cells: E. coli BL21(DE3) pLysS
Procedure: as §1, §2, §3, §4, §5

[6] = target: T6, Myc353–437 A401E (Homo sapiens, UniProt P01106, A416E); assay: Tyrosine fluorescence quenching titration; type: binding; conditions: Myc353–437 A401E mutant
T6 construct: We constructed Myc353–437 A401E to determine if the same flanking residue would be permissive; 6xHis tag + TEV site (N, cleaved yes); made in house; host or cells: E. coli BL21(DE3) pLysS
Procedure: as §1, §2, §3, §4, §5

[7] = target: T7, Myc402–412 peptide (Homo sapiens, UniProt P01106); assay: Tyrosine fluorescence quenching titration; type: binding
T7 construct: purchased Genscript; host or cells: solid phase peptide synthesis
Procedure: as §1, §2, §3, §4, §5

[8] = target: T7, Myc402–412 peptide; assay: Circular dichroism with and without small molecule; conditions: 2.5 µM Myc402–412 peptide, 50 µM 34RH
Procedure: Samples containing Myc353–437, Myc402–412 peptide, MaxRH, Max isoforms, or mutants in the absence and presence of excess concentrations of 34RH were prepared in 1xCD buffer (50 mM KF, 4.3 mM NaH2PO4, 1.4 mM KH2PO4, 5% ethanol). The pH of the buffer was adjusted to either 6 or 7.4 depending on the experiment conducted. The compound was delivered from a 1 mM ethanol stock solution. Samples were incubated for 1 hr before measurement. The far UV-spectra of the proteins and peptide were recorded in a quartz cuvette with a path length of 0.1 cm using a Jasco J720 spectropolarimeter. The samples were scanned from 270 to 195 nm with an increment of 1 nm, constant bandwidth of 10 nm, and a scanning speed of 1 nm per minute. After subtracting the buffer signal, the raw data in millidegrees was converted to mean residue ellipticity (MRE).

T5 sequence (P61244 whole entry Q72L/Y73S/M74V/R75Q/R76A/K77E): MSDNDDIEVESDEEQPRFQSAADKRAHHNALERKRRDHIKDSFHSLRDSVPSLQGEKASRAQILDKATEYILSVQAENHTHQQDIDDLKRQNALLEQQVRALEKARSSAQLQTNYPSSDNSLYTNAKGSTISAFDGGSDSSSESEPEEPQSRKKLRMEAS
T6 sequence (P01106 368-452 A416E): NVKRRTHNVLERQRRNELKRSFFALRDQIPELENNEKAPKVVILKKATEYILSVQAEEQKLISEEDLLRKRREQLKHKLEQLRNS
T4 sequence (P61244 1-151 isoform P61244-2): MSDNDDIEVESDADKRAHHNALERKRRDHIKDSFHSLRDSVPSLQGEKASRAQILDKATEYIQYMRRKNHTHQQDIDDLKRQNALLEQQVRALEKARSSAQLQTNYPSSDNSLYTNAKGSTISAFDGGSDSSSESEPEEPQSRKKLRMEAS
T1 sequence (P61244 whole entry): as the sequence (P61244 whole entry Q72L/Y73S/M74V/R75Q/R76A/K77E) above, with L72Q, S73Y, V74M, Q75R, A76R, E77K counted along it
T2 sequence (P61244 whole entry Q72L/Y73S/M74V/R75Q/R76A/K77E/N78E): as the sequence (P61244 whole entry Q72L/Y73S/M74V/R75Q/R76A/K77E) above, with N78E counted along it
T3 sequence (P01106 368-452 E425N): as the sequence (P01106 368-452 A416E) above, with E49A, E58N counted along it

titratable tyrosine fluorescence quenching (binding) [1]: does not exhibit titratable quenching | binding by titratable tyrosine quenching [2]: complete loss of observable binding | binding by tyrosine quenching [3]: eliminated binding | titratable tyrosine fluorescence quenching (binding) [4]: no titratable quenching | Kd ([5]; pH 6): 9.1 ± 3.9 µM | Kd ([5]; pH 7.4): 23.4 ± 1.1 µM | affinity weaker than in the Myc context ([5]; MaxRH vs Myc353–437, pH 7.4): about 6 fold | affinity weaker relative to the peptide ([5]; MaxRH vs Myc402–412 peptide, pH 7.4): ~2 fold | improvement of binding to MaxRH at pH 6 ([5]; pH 6 vs pH 7.4): 2.5 fold | binding by tyrosine quenching [6]: no detectable binding | change in affinity, Myc402–412 peptide vs Myc353–437 [7]: 3 fold | difference in affinity between Myc353–437 and Myc402–412 contexts [7]: less than 0.7 kcal mol^−1 | Kd ([7]; 1 µM Myc402–412 peptide, excess 34RH, Langmuir binding isotherm): 11.5 ± 1.2 µM
Compound: O=C1NC(=S)S/C1=C\c1ccc(C(=O)O)cc1 [34RH, (Z)-4-((4-oxo-2-thioxothiazolidin-5-ylidene)methyl)benzoic acid]
effect on structural ensemble (CD) [8]: does not exhibit perturbations to the structural ensemble

Source: PMC9775153, “Portability of a Small-Molecule Binding Site between Disordered Proteins” (Biomolecules, 2022)
